# Measured values: paper PMC11050816, “Pharmacokinetics and Safety of Lurbinectedin Administrated with Itraconazole in Cancer Patients: A Drug–Drug Interaction Study” (Marine Drugs, 2024)
# Read-outs that look alike come from different tables or passages of the source.
# Columns and labels:
# [1] = Safety assessment: adverse events and laboratory abnormalities graded by NCI-CTCAE v. 5.0; assay type: in vivo, human
# Text: Safety analyses included all 14 patients who received at least one dose of lurbinectedin (Part A, n = 3; Part B, n = 11). Thirteen of the fourteen treated patients (three in Part A and ten in Part B) received itraconazole plus lurbinectedin in Cycles 1 or 2, and all fourteen treated patients (three in Part A and 11 in Part B) received lurbinectedin alone in Cycles 1, 2, or 3.
# (§1) The study consisted of two parts.
# Safety evaluations included assessments of AEs, clinical laboratory tests, deaths, vital signs measurements, and physical examinations. TEAEs were defined as any AE that worsened in severity from baseline or having their onset between the first dose of the study drug and 31 days (±10 days) after the last dose, death, or date of further therapy. AEs were coded based on the Medical Dictionary for Regulatory Activities (MedDRA) v. 23.0 and graded as per the National Cancer Institute–Common Terminology Criteria for Adverse Events (NCI-CTCAE) v. 5.0.
# [2] = Total plasma lurbinectedin pharmacokinetics with and without itraconazole (phase Ib drug-drug interaction study); assay type: in vivo, human
# Text: as §1
# [3] = cited from earlier work
# [4] = parameters: method as in PMID 24563480; conditions: 1.3 mg/m^2 over 1 h without CYP3A4 inhibitors; cited from earlier work
# [5] = cited from earlier work; remark: listed apart in the source
# [6] = Unbound plasma lurbinectedin pharmacokinetics with and without itraconazole (phase Ib drug-drug interaction study); assay type: in vivo, human
# Text: as §1
# cytochrome P450 (CYP) 3A = conditions: based on in vitro studies; cited from earlier work
# [7] = Part A (LRB 0.8 mg/m^2 with ITZ, 3.2 mg/m^2 alone), all grades
# [8] = Part A (LRB 0.8 mg/m^2 with ITZ, 3.2 mg/m^2 alone), grade 3
# [9] = Part A (LRB 0.8 mg/m^2 with ITZ, 3.2 mg/m^2 alone), grade 4
# [10] = Part B (LRB 0.9 mg/m^2 with ITZ, 3.2 mg/m^2 alone), all grades
# [11] = Part B (LRB 0.9 mg/m^2 with ITZ, 3.2 mg/m^2 alone), grade 3
# [12] = Part B (LRB 0.9 mg/m^2 with ITZ, 3.2 mg/m^2 alone), grade 4
# [13] = co-administration with itraconazole compared to lurbinectedin alone
# [14] = co-administration with itraconazole compared to lurbinectedin alone, listed as LRB
# [15] = co-administration with multiple oral doses of itraconazole
# [16] = total plasma lurbinectedin, n = 8 patients per treatment
# [17] = unbound plasma lurbinectedin, Test n = 5, Reference n = 8
smiles,measurement,setting,value
COc1ccc2[nH]c3c(c2c1)CCN[C@]31CS[C@@H]2c3c(OC(C)=O)c(C)c4c(c3[C@H](COC1=O)N1[C@@H]2[C@H]2c3c(cc(C)c(OC)c3O)C[C@@H]([C@@H]1O)N2C)OCO4 [lurbinectedin],Tolerability,[1]; 0.9 mg/m^2 1 h IV infusion Day 1 q3wk with itraconazole,well tolerated
same,"ALT increased (biochemical laboratory abnormality, regardless of relationship)",[1]; [7],1 (33) n (%) of patients
same,"Anemia (hematological laboratory abnormality, regardless of relationship)",[1]; [7],3 (100) n (%) of patients
same,Constipation (treatment-related AE),[1]; [7],1 (33) n (%) of patients
same,"GGT increased (biochemical laboratory abnormality, regardless of relationship)",[1]; [7],1 (33) n (%) of patients
same,"Leukopenia (hematological laboratory abnormality, regardless of relationship)",[1]; [7],3 (100) n (%) of patients
same,"Lymphopenia (hematological laboratory abnormality, regardless of relationship)",[1]; [7],3 (100) n (%) of patients
same,"Neutropenia (hematological laboratory abnormality, regardless of relationship)",[1]; [7],2 (67) n (%) of patients
same,"Thrombocytopenia (hematological laboratory abnormality, regardless of relationship)",[1]; [7],2 (67) n (%) of patients
same,Vomiting (treatment-related AE),[1]; [7],1 (33) n (%) of patients
same,"ALT increased (biochemical laboratory abnormality, regardless of relationship)",[1]; [8],1 (33) n (%) of patients
same,"Leukopenia (hematological laboratory abnormality, regardless of relationship)",[1]; [8],1 (33) n (%) of patients
same,"Lymphopenia (hematological laboratory abnormality, regardless of relationship)",[1]; [8],1 (33) n (%) of patients
same,"Leukopenia (hematological laboratory abnormality, regardless of relationship)",[1]; [9],1 (33) n (%) of patients
same,"Neutropenia (hematological laboratory abnormality, regardless of relationship)",[1]; [9],2 (67) n (%) of patients
same,"Bone pain (treatment-emergent AE, regardless of relationship)","[1]; Part A, all grades",1 (33) n (%) of patients
same,"Constipation (treatment-emergent AE, regardless of relationship)","[1]; Part A, all grades",1 (33) n (%) of patients
same,"Dysgeusia (treatment-emergent AE, regardless of relationship)","[1]; Part A, all grades",1 (33) n (%) of patients
same,"Fatigue (treatment-emergent AE, regardless of relationship)","[1]; Part A, all grades",1 (33) n (%) of patients
same,"Pleural effusion (treatment-emergent AE, regardless of relationship)","[1]; Part A, all grades",1 (33) n (%) of patients
same,"Vomiting (treatment-emergent AE, regardless of relationship)","[1]; Part A, all grades",1 (33) n (%) of patients
same,"Pleural effusion (treatment-emergent AE, regardless of relationship)","[1]; Part A, grade 3",1 (33) n (%) of patients
same,"ALT increased (biochemical laboratory abnormality, regardless of relationship)",[1]; [10],9 (82) n (%) of patients
same,Acute kidney injury (treatment-related AE),[1]; [10],1 (9) n (%) of patients
same,"Anemia (hematological laboratory abnormality, regardless of relationship)",[1]; [10],9 (82) n (%) of patients
same,"CPK increased (biochemical laboratory abnormality, regardless of relationship)",[1]; [10],1 (9) n (%) of patients
same,Fatigue (treatment-related AE),[1]; [10],2 (18) n (%) of patients
same,"GGT increased (biochemical laboratory abnormality, regardless of relationship)",[1]; [10],4 (36) n (%) of patients
same,"Leukopenia (hematological laboratory abnormality, regardless of relationship)",[1]; [10],8 (73) n (%) of patients
same,"Lymphopenia (hematological laboratory abnormality, regardless of relationship)",[1]; [10],9 (82) n (%) of patients
same,Nausea (treatment-related AE),[1]; [10],5 (45) n (%) of patients
same,"Neutropenia (hematological laboratory abnormality, regardless of relationship)",[1]; [10],8 (73) n (%) of patients
same,Rhabdomyolysis (treatment-related AE),[1]; [10],1 (9) n (%) of patients
same,"Thrombocytopenia (hematological laboratory abnormality, regardless of relationship)",[1]; [10],8 (73) n (%) of patients
same,Vomiting (treatment-related AE),[1]; [10],3 (27) n (%) of patients
same,Acute kidney injury (treatment-related AE),[1]; [11],1 (9) n (%) of patients
same,"Anemia (hematological laboratory abnormality, regardless of relationship)",[1]; [11],1 (9) n (%) of patients
same,"GGT increased (biochemical laboratory abnormality, regardless of relationship)",[1]; [11],1 (9) n (%) of patients
same,"Leukopenia (hematological laboratory abnormality, regardless of relationship)",[1]; [11],5 (45) n (%) of patients
same,"Lymphopenia (hematological laboratory abnormality, regardless of relationship)",[1]; [11],2 (18) n (%) of patients
same,"Neutropenia (hematological laboratory abnormality, regardless of relationship)",[1]; [11],5 (45) n (%) of patients
same,Rhabdomyolysis (treatment-related AE),[1]; [11],1 (9) n (%) of patients
same,Vomiting (treatment-related AE),[1]; [11],1 (9) n (%) of patients
same,"CPK increased (biochemical laboratory abnormality, regardless of relationship)",[1]; [12],1 (9) n (%) of patients
same,"Leukopenia (hematological laboratory abnormality, regardless of relationship)",[1]; [12],1 (9) n (%) of patients
same,"Lymphopenia (hematological laboratory abnormality, regardless of relationship)",[1]; [12],1 (9) n (%) of patients
same,"Neutropenia (hematological laboratory abnormality, regardless of relationship)",[1]; [12],3 (27) n (%) of patients
same,"Thrombocytopenia (hematological laboratory abnormality, regardless of relationship)",[1]; [12],1 (9) n (%) of patients
same,"Acute kidney injury (treatment-emergent AE, regardless of relationship)","[1]; Part B, all grades",1 (9) n (%) of patients
same,"Deep vein thrombosis (treatment-emergent AE, regardless of relationship)","[1]; Part B, all grades",1 (9) n (%) of patients
same,"Diarrhea (treatment-emergent AE, regardless of relationship)","[1]; Part B, all grades",1 (9) n (%) of patients
same,"Fatigue (treatment-emergent AE, regardless of relationship)","[1]; Part B, all grades",2 (18) n (%) of patients
same,"Intestinal pseudo-obstruction (treatment-emergent AE, regardless of relationship)","[1]; Part B, all grades",1 (9) n (%) of patients
same,"Nausea (treatment-emergent AE, regardless of relationship)","[1]; Part B, all grades",5 (45) n (%) of patients
same,"Respiratory failure (treatment-emergent AE, regardless of relationship)","[1]; Part B, all grades",1 (9) n (%) of patients
same,"Rhabdomyolysis (treatment-emergent AE, regardless of relationship)","[1]; Part B, all grades",1 (9) n (%) of patients
same,"Small intestinal obstruction (treatment-emergent AE, regardless of relationship)","[1]; Part B, all grades",1 (9) n (%) of patients
same,"Stomatitis (treatment-emergent AE, regardless of relationship)","[1]; Part B, all grades",1 (9) n (%) of patients
same,"Vomiting (treatment-emergent AE, regardless of relationship)","[1]; Part B, all grades",3 (27) n (%) of patients
same,"Acute kidney injury (treatment-emergent AE, regardless of relationship)","[1]; Part B, grade 3",1 (9) n (%) of patients
same,"Deep vein thrombosis (treatment-emergent AE, regardless of relationship)","[1]; Part B, grade 3",1 (9) n (%) of patients
same,"Rhabdomyolysis (treatment-emergent AE, regardless of relationship)","[1]; Part B, grade 3",1 (9) n (%) of patients
same,"Small intestinal obstruction (treatment-emergent AE, regardless of relationship)","[1]; Part B, grade 3",1 (9) n (%) of patients
same,"Vomiting (treatment-emergent AE, regardless of relationship)","[1]; Part B, grade 3",1 (9) n (%) of patients
same,Patients with lurbinectedin dose reduction due to AEs,[1]; during treatment with lurbinectedin alone (grade 3 ALT increase; grade 4 neutropenia),Two
same,Patients who discontinued treatment due to a treatment-related serious AE,"[1]; grade 3 rhabdomyolysis, Cycle 2 of Part B (Sequence 1), lurbinectedin alone",one
same,Increase of total plasma AUC0–t,[2]; [13],approximately 2.4 fold
same,Increase of total plasma AUC0–∞,[2]; [13],approximately 2.7 fold
same,Increase of total plasma Cmax,[2]; [13],15%
same,Increase of total plasma AUC0–t,[2]; [14],2.4 fold
same,Increase of total plasma AUC0–∞,[2]; [14],2.7 fold
same,"Prolongation of terminal half-life (t1/2), total plasma",[2]; [15],2.2 fold
same,Reduction of total plasma CL,[2]; [15],63%
same,clearance,"[2]; human, intravenous, 3.2 mg/m^2, total plasma lurbinectedin, n = 8 patients per treatment, read-out: CL, geometric mean (CV%) (converted)",158 mL/min
same,Vd,"[2]; human, intravenous, 3.2 mg/m^2, total plasma lurbinectedin, n = 8 patients per treatment, read-out: Vss, geometric mean (CV%)",419 L
same,half-life,"[2]; human, intravenous, 3.2 mg/m^2, total plasma lurbinectedin, n = 8 patients per treatment, read-out: t1/2, geometric mean (CV%) (converted)",46.6 h
same,"AUC0–t, dose-normalized, geometric mean (CV%)",[2]; [16],103.4 (78.85) µg·h/L/mg
same,"AUC0–∞, dose-normalized, geometric mean (CV%)",[2]; [16],105.8 (77.37) µg·h/L/mg
same,"Cmax, dose-normalized, geometric mean (CV%)",[2]; [16],22.43 (53.75) µg/L/mg
same,Population estimate for total plasma CL,"[3]; 1 h IV infusion, single agent or combined",11.2 L/h
same,Extraction ratio,[3],0.19
same,Population estimate of apparent volume at steady state,[3],438 L
same,Reduction of CL,[3]; co-administration of cytochrome CYP3A inhibitors,30%
same,Decrease of mean plasma CL,[3]; concomitant administration of aprepitant (a moderate CYP3A4 inhibitor),30%
same,Blood CL,[3]; corresponding to total plasma CL 11.2 L/h,~ 17 L/h
same,Reduction of CL,[3]; high C-reactive protein,20%
same,Reduction of CL,[3]; high α-1-acid glycoprotein,28%
same,Reduction of CL,[3]; low albumin,20%
same,Time after starting the infusion for which plasma concentrations were measurable,[4],at least 160 h
same,Protein binding,[5],highly protein-bound
same,Decrease of unbound CL,[6]; [13],58%
same,Increase of unbound AUC0–∞,[6]; [13],2.4 fold
same,Unbound t1/2 longer,[6]; [13],2 fold
same,Vd,"[6]; human, intravenous, 3.2 mg/m^2, unbound plasma lurbinectedin, Test n = 5, Reference n = 8, read-out: Unbound Vss, geometric mean (CV%)",235000 L
same,half-life,"[6]; human, intravenous, 3.2 mg/m^2, unbound plasma lurbinectedin, Test n = 5, Reference n = 8, read-out: Unbound t1/2, geometric mean (CV%) (converted)",46.6 h
same,"Unbound AUC0–t, dose-normalized, geometric mean (CV%)",[6]; [17],184.55 (57.58) pg·h/mL/mg
same,"Unbound AUC0–∞, dose-normalized, geometric mean (CV%)",[6]; [17],188.84 (56.92) pg·h/mL/mg
same,"Unbound CL, geometric mean (CV%)",[6]; [17],5295.44 (56.92) L/h
same,"Unbound Cmax, dose-normalized, geometric mean (CV%)",[6]; [17],40.03 (21.75) pg/mL/mg
same,Major clearance (CL) mechanism,cytochrome P450 (CYP) 3A,metabolism of lurbinectedin by cytochrome P450 (CYP) 3A
